Test system: TFEB
Test: TFEB nuclear translocation assay, HeLa wt cells
Format: cell-based
Settings: Homo sapiens, HeLa, 2 h, 2 hrs compound treatment, Table 1 does not say HeLa wt or TRPML1 KO
Method in brief: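 HeLa wt cells were treated with compound for 2 hrs at 37° C, then fixed in 4% PFA and immunostained for TFEB with an Alexa 488 secondary and Hoechst nuclear counterstain. Automated epifluorescence imaging at ×20 gave the ratio of nuclear TFEB intensity to a perinuclear ring region, from which AC50 was derived.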

| Structure (SMILES) | AC50 |
| --- | --- |
| CN(C)S(=O)(=O)c1ccc(S(=O)(=O)Nc2ccccc2N2CCCC3(CCCOC3)C2)cc1 (centres unmarked) [Compound A-511, N1,N1-dimethyl-N4-(2-{2-oxa-8-azaspiro[5.5]undecan-8-yl}phenyl)benzene-1,4-disulfonamide] | ≤ 2000 nM |
| CC(C)S(=N)(=O)c1ccc(S(=O)(=O)[C@H](C)c2cccc(F)c2N2CCCCC2)cc1 (stereo partly drawn) [Compound A-922, (4-(((R)-1-(3-fluoro-2-(piperidin-1-yl)phenyl)ethyl)sulfonyl)phenyl)(imino)(isopropyl)-λ^6-sulfanone] | ≥ 10000 nM |
| Cn1ccc2cc(S(=O)(=O)Nc3ccccc3N3CCN(C(=O)C(C)(C)C)CC3)ccc21 [Compound A-515, N-{2-[4-(2,2-dimethylpropanoyl)piperazin-1-yl]phenyl}-1-methyl-1H-indole-5-sulfonamide] | 2010 to 8000 nM |
| O=S(=O)(Nc1cccc(N2CCC(c3ccc(Cl)cc3F)CC2)c1)c1ccccc1F [Compound A-114, N-{3-[4-(4-chloro-2-fluorophenyl)piperidin-1-yl]phenyl}-2-fluorobenzene-1-sulfonamide] | ≥ 10000 nM |
| COCC1(C)CCN(c2ccccc2NS(=O)(=O)c2ccc(Br)cc2)CC1 [Compound A-623, 4-bromo-N-{2-[4-(methoxymethyl)-4-methylpiperidin-1-yl]phenyl}benzene-1-sulfonamide] | 2010 to 8000 nM |
| COCCOCCOCC1(C)CCN(c2ccccc2NS(=O)(=O)c2ccc(S(=O)(=O)N(C)C)cc2)CC1 [Compound A-519, N4-[2-(4-{[2-(2-methoxyethoxy)ethoxy]methyl}-4-methylpiperidin-1-yl)phenyl]-N1,N1-dimethylbenzene-1,4-disulfonamide] | ≤ 2000 nM |
| CN(C)S(=O)(=O)c1ccc(S(=O)(=O)Nc2ccccc2N2CCC(C)(COC(F)(F)F)CC2)cc1 [Compound A-784, N1,N1-dimethyl-N4-(2-{4-methyl-4-[(trifluoromethoxy)methyl]piperidin-1-yl}phenyl)benzene-1,4-disulfonamide] | ≤ 2000 nM |
| O=S(=O)(Nc1cccc(N2CCC(c3ccc(Cl)cc3F)CC2)c1)c1ccc(F)cc1 [Compound A-128, N-{3-[4-(4-chloro-2-fluorophenyl)piperidin-1-yl]phenyl}-4-fluorobenzene-1-sulfonamide] | ≥ 10000 nM |
| CN(C)C1(c2ccc(Cl)cc2F)CCN(c2ccccc2NS(=O)(=O)c2ccc(S(=O)(=O)N(C)C)cc2)CC1 [Compound A-211, N4-{2-[4-(4-chloro-2-fluorophenyl)-4-(dimethylamino)piperidin-1-yl]phenyl}-N1,N1-dimethylbenzene-1,4-disulfonamide] | ≤ 2000 nM |
| COc1ccc(S(=O)(=O)Nc2nccnc2N2CCN(c3ncc(Cl)cc3F)CC2)cc1 [Compound A-130, N-{3-[4-(5-chloro-3-fluoropyridin-2-yl)piperazin-1-yl]pyrazin-2-yl}-4-methoxybenzene-1-sulfonamide] | ≥ 10000 nM |
| O=S(=O)(Nc1ccccc1N1CCC(c2ccc(Cl)cc2F)CC1)c1ccc(C2(C(F)(F)F)N=N2)cc1 [Compound A-732, N-{2-[4-(4-chloro-2-fluorophenyl)piperidin-1-yl]phenyl}-4-[3-(trifluoromethyl)-3H-diazirin-3-yl]benzene-1-sulfonamide] | 2010 to 8000 nM |
| CN(C)S(=O)(=O)c1ccc(S(=O)(=O)Nc2ccccc2N2CCC(F)(COC(F)(F)F)CC2)cc1 [Compound A-798, N4-(2-{4-fluoro-4-[(trifluoromethoxy)methyl]piperidin-1-yl}phenyl)-N1,N1-dimethylbenzene-1,4-disulfonamide] | ≤ 2000 nM |
| CN=S(=O)(c1ccc(S(=O)(=O)Nc2cccc(F)c2N2CCC(CN3C[C@@H](C)O[C@@H](C)C3)CC2)cc1)N(C)C (stereo partly drawn) [Compound A-956, 4-{[2-(4-{[(2R,6S)-2,6-dimethylmorpholin-4-yl]methyl}piperidin-1-yl)-3-fluorophenyl]sulfamoyl}-N,N,N-trimethylbenzene-1-sulfonoimidamide] | ≤ 2000 nM |
| CC(c1cccc(F)c1N1CCCCC1)S(=O)(=O)c1ccc(S(=O)(=O)C(F)F)cc1 (centres unmarked) [Compound A-973, 1-{2-[1-(4-difluoromethanesulfonylbenzenesulfonyl)ethyl]-6-fluorophenyl}piperidine] | ≤ 2000 nM |

Source: patent US20230104936A1, “TRPML MODULATORS” (Casma Therapeutics, Inc., priority 2019, published 2023)
